The values below are quoted from earlier work in patent US7863277B1, “Topical antipsychotic composition” (Medcara, L.L.C., priority 2005, dated 2011).

For this data set the following is noted: decreasing absorption when not taken concurrently with food.

Consider `O=C1Cc2cc(CCN3CCN(c4nsc5ccccc45)CC3)c(Cl)cc2N1` [ziprasidone, 5-(2-(4-(1,2-benzisothiazol-3-yl)piperazinyl)ethyl)-6-chloro-1,3-dihydro-2(1H)-indole-2-one], for which the Oral bioavailability result is reported as “about 60%”.
